Laboratory results from ChEMBL document CHEMBL1201862, “PubChem BioAssay data set” (2004).
The source made the active and inactive calls.

Legend:
[1] = THP-1 cell cytotoxicity, dose response, cytotoxicity control for non-replicating M. tuberculosis project (AID 489025); assay type: functional
[2] = inhibitors of intracellular T. cruzi replication, confirmation, NIH3T3 host cells, beta-gal luminescence (AID 2044); assay type: functional, cell-based;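 also: intracellular parasites grown in NIH/3T3 mouse fibroblasts as host cells; luminescent beta-galactosidase reporter signal from transgenic T. cruzi replicating inside host cells; inhibitors lower the luminescence signal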
[3] = cytotoxicity toward NIH3T3 fibroblasts, dose response, counter-screen, cell-based, ATP luminescence, mouse fibroblasts (AID 2010); assay type: functional;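 also: cells exposed to compound for about 90 hours before reading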
cells [4] = assay type: functional
[5] = target: Induced myeloid leukemia cell differentiation protein Mcl-1 (Homo sapiens, UniProt Q07820); assay type: functional
Sequence of Induced myeloid leukemia cell differentiation protein Mcl-1 (Q07820 whole entry): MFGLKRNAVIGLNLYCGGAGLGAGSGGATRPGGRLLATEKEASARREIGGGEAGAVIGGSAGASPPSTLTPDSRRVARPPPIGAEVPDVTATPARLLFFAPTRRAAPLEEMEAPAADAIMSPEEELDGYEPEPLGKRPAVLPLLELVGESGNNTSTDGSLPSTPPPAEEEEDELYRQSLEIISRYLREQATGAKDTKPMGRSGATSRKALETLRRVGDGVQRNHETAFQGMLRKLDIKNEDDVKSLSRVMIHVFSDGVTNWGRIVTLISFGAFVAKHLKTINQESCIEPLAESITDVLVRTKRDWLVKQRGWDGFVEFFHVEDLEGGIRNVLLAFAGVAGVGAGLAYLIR

[6] = target: Eukaryotic translation initiation factor 4E (Mus musculus, UniProt P63073); test: eIF4E–eIF4G protein interaction inhibitors, dose response, biochemical, TR-FRET (AID 855); assay type: functional;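 also: potency for disrupting eIF4E binding to eIF4GI seen as loss of FRET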
Sequence of Eukaryotic translation initiation factor 4E (P63073 whole entry): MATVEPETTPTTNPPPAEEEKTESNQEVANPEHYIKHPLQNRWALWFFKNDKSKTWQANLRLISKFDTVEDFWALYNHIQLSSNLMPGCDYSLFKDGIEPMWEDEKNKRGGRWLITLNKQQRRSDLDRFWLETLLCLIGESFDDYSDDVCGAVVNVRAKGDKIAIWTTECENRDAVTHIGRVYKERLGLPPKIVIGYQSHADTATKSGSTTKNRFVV

Genome polyprotein = Genome polyprotein (dengue virus type 2, UniProt P29990); test: Dengue-2 NS5 methyltransferase inhibitors, primary screen, biochemical, confirmation dose response (AID 588689); assay type: functional
Sequence of Genome polyprotein (P29990 2492-3391 limits assumed): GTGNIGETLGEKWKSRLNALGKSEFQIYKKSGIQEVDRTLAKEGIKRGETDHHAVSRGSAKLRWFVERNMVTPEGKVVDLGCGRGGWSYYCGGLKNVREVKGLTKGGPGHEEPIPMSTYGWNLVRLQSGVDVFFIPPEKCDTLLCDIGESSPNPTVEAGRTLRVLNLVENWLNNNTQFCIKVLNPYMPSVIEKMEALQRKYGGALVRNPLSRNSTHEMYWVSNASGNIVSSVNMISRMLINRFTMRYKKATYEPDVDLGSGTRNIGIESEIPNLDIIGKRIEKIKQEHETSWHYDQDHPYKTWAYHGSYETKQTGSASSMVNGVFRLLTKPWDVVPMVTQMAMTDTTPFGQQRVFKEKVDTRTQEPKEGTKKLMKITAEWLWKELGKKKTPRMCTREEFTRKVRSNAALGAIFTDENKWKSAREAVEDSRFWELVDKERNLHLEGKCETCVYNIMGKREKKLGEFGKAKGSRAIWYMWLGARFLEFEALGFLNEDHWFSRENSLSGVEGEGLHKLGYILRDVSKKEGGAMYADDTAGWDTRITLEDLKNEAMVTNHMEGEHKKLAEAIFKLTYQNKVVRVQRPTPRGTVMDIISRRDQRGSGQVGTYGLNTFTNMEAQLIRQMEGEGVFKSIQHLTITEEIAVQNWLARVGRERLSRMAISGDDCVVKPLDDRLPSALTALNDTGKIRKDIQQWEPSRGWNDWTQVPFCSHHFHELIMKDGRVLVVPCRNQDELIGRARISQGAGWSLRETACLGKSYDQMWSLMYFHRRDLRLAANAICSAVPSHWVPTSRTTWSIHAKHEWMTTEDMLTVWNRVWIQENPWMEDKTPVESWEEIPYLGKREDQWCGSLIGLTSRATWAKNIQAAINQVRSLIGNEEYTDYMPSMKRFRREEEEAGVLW

H4 = test: Luminescence Cell-Based Dose Response HTS to Identify Activators of 5'UTR Stem-Loop Driven Prion Protein mRNA Translation in H4 Neuroglioblastoma Cells. [Related pubchem assays: 1829 (Project Summary), 1814 (Primary HTS)]; assay type: functional; settings: Homo sapiens
[7] = Luminescence Cell-Based Dose Response HTS to Identify Activators of Luciferase Translation or Activity in H4 […] Cells. [Related pubchem assays: 1829 (Project Summary), 1814 (Primary HTS)]; assay type: functional
[8] = Luminescence Cell-Based Dose Confirmation HTS to Identify Activators of 5'UTR Stem-Loop Driven Alpha-Synuclein mRNA Translation in H4 Neuroglioblastoma Cells. [Related pubchem assays: 1829 (Project Summary), 1814 (Primary HTS)]; assay type: functional
[9] = target: Dual specificity tyrosine-phosphorylation-regulated kinase 1A (Rattus norvegicus, UniProt Q63470); assay type: biochemical, Homo sapiens
[10] = target: DNA dC->dU-editing enzyme APOBEC-3G (Homo sapiens, UniProt Q9HC16); assay type: functional;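 also: Dose-response counterscreen measuring inhibition of APOBEC3G DNA deaminase activity, run while confirming APOBEC3A inhibitors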
Sequence of DNA dC->dU-editing enzyme APOBEC-3G (Q9HC16 whole entry): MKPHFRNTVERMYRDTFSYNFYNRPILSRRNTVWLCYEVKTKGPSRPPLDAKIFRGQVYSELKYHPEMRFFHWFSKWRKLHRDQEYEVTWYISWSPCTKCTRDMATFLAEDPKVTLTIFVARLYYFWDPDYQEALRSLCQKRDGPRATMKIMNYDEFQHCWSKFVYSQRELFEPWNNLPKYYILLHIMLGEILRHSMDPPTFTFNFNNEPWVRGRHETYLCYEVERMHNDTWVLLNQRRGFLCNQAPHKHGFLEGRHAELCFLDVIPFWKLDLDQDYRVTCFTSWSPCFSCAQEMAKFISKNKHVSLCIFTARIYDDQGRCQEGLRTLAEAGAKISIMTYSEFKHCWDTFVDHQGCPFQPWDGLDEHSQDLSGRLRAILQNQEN

[11] = target: DNA dC->dU-editing enzyme APOBEC-3A (Homo sapiens, UniProt P31941); test: Dose Response confirmation of small molecule APOBEC3A DNA Deaminase Inhibitors via a fluorescence-based single-stranded DNA deaminase assay. [Related pubchem assays (depositor defined):AID493011, AID493024]; assay type: functional
Sequence of DNA dC->dU-editing enzyme APOBEC-3A (P31941 whole entry): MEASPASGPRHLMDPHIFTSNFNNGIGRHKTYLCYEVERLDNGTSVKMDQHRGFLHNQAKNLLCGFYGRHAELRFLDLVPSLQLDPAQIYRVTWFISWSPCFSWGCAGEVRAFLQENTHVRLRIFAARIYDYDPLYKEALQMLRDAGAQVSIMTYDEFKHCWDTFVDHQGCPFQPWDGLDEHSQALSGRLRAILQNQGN

cells [12] = test: cells
[13] = cytotoxicity in HEK-293T cells, dose response, cytotoxicity control for BCR NF-kB inhibitor project, luminescence, B-cell screen hits (AID 489021); assay type: functional, cell-based;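 also: HEK-293T cells carrying an NF-kB luciferase reporter; cells exposed to compound for about 14 hours before viability readout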
[14] = NIH-3T3 fibroblast cytotoxicity, dose response, cytotoxicity control, cell-based, fluorescence, Alamar Blue, secondary assay (AID 2327); assay type: functional;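 also: NIH-3T3 mouse fibroblasts cultured with fluconazole at 8 µg/mL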
[15] = C. albicans growth with fluconazole, confirmation, fluorescence, retest (AID 2467); assay type: functional, cell-based
INS1 = test: beta cell apoptosis inhibitors, cytokine rescue, dose response, luminescence, retest (AID 449756); assay type: functional, cell-based; settings: Rattus norvegicus;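 also: cell death triggered by IL-1 beta plus TNF-alpha plus IFN-gamma mixture; protective hits raise ATP signal compared with cytokine alone wells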
HEK293 = test: inhibitors of LMP1-driven NF-kB reporter, dose response, cell-based, HEK293, luciferase, cherry-pick (AID 588343); assay type: functional; settings: Homo sapiens
[16] = target: T1, Heat shock factor protein 1 (Mus musculus, UniProt P38532); test: inhibition of MG132-induced HSE-luciferase signal, confirmation, cell-based, NIH3T3, luminescence, dose retest (AID 2382); assay type: functional;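 also: NIH3T3 fibroblasts with HSF1-driven luciferase reporter stressed by proteasome inhibitor MG132; luminescence from HSF1-driven luciferase expression after 8 hours of MG132 stress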
T1 sequence (P38532 whole entry): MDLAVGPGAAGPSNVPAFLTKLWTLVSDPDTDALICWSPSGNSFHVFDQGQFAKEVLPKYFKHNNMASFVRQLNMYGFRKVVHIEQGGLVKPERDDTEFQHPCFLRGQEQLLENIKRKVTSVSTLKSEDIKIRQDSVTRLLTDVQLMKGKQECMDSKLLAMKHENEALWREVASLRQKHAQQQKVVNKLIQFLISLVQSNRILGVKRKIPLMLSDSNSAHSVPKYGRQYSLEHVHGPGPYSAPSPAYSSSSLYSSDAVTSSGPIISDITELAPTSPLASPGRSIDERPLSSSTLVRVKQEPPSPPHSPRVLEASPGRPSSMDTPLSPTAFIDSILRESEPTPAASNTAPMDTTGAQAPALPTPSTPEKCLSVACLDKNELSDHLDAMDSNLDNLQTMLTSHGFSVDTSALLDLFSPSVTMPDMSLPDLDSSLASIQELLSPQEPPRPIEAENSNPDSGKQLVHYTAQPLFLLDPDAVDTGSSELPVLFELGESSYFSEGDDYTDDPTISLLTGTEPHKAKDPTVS

cells [17] = test: cells; remark: listed apart in the source
Leucine aminopeptidase = target: T2, Leucine aminopeptidase (Plasmodium falciparum 3D7, UniProt Q8IL11); test: P. falciparum M17LAP inhibitors, primary screen, biochemical, fluorogenic H-Leu-NHMec substrate, 1536-well (AID 1619); assay type: functional
T2 sequence (Q8IL11 whole entry): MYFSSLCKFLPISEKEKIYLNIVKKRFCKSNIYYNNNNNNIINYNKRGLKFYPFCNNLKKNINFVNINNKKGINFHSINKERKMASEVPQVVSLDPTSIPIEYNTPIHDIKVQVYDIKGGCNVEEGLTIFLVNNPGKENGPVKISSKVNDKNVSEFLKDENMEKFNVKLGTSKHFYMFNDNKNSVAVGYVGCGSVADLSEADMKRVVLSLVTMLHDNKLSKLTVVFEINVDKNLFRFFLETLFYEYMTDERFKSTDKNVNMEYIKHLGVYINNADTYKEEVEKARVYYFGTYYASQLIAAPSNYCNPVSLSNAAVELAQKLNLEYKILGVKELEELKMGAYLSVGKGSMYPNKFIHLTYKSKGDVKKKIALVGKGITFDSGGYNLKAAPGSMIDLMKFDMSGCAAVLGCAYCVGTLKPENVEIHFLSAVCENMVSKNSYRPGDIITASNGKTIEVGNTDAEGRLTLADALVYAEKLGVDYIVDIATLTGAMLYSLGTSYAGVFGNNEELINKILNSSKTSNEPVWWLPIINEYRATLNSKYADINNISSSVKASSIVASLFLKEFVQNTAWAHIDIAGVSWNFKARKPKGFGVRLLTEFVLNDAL

Large T antigen = Large T antigen (Simian virus 40, UniProt P03070); assay type: functional, Betapolyomavirus macacae;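 also: Confirmatory-stage PubChem screen for compounds that inhibit SV40 T antigen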
Sequence of Large T antigen (P03070 whole entry): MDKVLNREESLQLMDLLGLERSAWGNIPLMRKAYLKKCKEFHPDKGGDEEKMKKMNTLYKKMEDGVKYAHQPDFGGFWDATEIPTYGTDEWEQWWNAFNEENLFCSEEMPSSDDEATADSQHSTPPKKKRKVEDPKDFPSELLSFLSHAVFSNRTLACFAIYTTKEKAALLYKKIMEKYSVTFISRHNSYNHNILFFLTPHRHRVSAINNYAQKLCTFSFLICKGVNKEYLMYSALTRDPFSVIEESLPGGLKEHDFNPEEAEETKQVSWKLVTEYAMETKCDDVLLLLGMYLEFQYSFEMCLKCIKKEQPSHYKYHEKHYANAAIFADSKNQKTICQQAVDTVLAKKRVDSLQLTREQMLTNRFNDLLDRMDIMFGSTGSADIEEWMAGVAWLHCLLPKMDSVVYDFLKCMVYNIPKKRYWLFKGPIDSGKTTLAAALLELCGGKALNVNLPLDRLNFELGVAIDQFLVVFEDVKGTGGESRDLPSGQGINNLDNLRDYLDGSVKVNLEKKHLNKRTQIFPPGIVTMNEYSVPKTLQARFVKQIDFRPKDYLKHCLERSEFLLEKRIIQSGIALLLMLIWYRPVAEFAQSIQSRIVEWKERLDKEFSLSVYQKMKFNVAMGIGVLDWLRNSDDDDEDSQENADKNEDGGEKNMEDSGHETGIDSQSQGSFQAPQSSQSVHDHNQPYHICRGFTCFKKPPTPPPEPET

Vero = test: cells; assay type: functional, cell-based; settings: Chlorocebus sabaeus
[18] = HEp-2 cell cytotoxicity, dose response, cytotoxicity control for RSV inhibitor project, HTS (AID 2410); assay type: functional; settings: human respiratory syncytial virus
[19] = target: T3, DNA repair protein RAD52 homolog (Homo sapiens, UniProt P43351); assay type: functional, biochemical
T3 sequence (P43351 whole entry): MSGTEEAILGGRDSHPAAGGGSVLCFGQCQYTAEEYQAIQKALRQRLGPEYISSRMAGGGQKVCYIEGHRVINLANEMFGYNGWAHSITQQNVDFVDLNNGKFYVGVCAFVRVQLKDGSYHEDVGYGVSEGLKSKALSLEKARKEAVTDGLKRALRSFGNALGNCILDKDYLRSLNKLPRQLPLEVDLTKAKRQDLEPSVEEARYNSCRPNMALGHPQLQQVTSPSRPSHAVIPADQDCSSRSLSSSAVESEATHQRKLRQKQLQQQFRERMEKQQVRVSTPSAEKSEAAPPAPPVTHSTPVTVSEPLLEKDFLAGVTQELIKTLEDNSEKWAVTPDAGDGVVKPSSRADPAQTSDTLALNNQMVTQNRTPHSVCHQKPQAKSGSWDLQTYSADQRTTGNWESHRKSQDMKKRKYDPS

[20] = non-specific cell cytotoxicity, dose response, cytotoxicity control for PAX8 inhibitor project, plate reader, dry powder samples (AID 743021); assay type: functional, cell-based

C=CCc1cc(Cl)ccc1OCCCn1ccnc1
CC50 [1]: > 40 µM (active) | EC50 [2]: 2.12 µM (active) | EC50 [3]: > 60 µM (not active) | IC50 (cells [4]): 16.7 µM (active)

CC(=O)Nc1ccc(C(=O)Nc2cccc(-c3cnc4ccccc4n3)c2)cc1
IC50 [5]: 25.5 µM (not active) | IC50 [6]: 50 µM (inactive)

CC(NC(=O)CSc1nnc(CC(=O)Nc2ccc(Cl)c(Cl)c2)n1C)c1ccccc1 (stereo unspecified)
IC50 [6]: > 64 µM (inactive)

Cc1ccc(C)c(S(=O)(=O)Nc2ccccc2C(=O)Nc2ccc(S(=O)(=O)Nc3ncccn3)cc2)c1
IC50 (Genome polyprotein): > 100 µM (active)

Nc1nc(N)nc(-c2ccc(Cl)cc2)n1
EC50 (H4): > 120 µM (not active) | EC50 [7]: > 120 µM (not active) | EC50 [8]: 12.2 µM (active) | AC50 [9]: 10.6 µM (active)

COc1cccc(CNC(=O)c2cccc(S(=O)(=O)N3CCN(C)CC3)c2)c1
IC50 [10]: 8.69 µM (active) | IC50 [11]: 5.44 µM (active)

Cc1ncc(CN2CCCC(CCC(=O)NCc3ccc(F)c(F)c3)C2)s1 (stereo unspecified)
EC50 (cells [12]): 0.14 µM (active) | EC50 [2]: < 0.1 µM (active) | EC50 [3]: > 60 µM (inconclusive)

COc1cc(CN2CCCC(CCC(=O)NCc3ccc(C)o3)C2)cc2c1OCO2 (stereo unspecified)
EC50 (cells [12]): 0.015 µM (active) | EC50 [2]: < 0.1 µM (active) | EC50 [3]: > 60 µM (not active)

COc1ccc(-[n+]2c(-c3ccc(Br)cc3)cn3c2CCc2ccccc2-3)cc1
EC50 (H4): > 120 µM (not active) | IC50 [13]: > 80 µM (inactive) | EC50 [7]: > 120 µM (not active) | EC50 [14]: > 160 µM (inactive) | EC50 [2]: 0.424 µM (active) | EC50 [8]: > 120 µM (not active) | EC50 [3]: > 30 µM (not active) | EC50 [15]: 1.62 µM (active) | AC50 (INS1): 2.15 µM (active)

Cc1nc(Nc2c(Cl)cccc2Cl)sc1C(=O)Nc1ccccc1
IC50 [13]: > 80 µM (inactive)

Cc1ccc(SCCOCCN2CC(C)OC(C)C2)cc1 (stereo unspecified)
EC50 (cells [12]): 0.007 µM (active) | EC50 [2]: < 0.1 µM (active) | EC50 [3]: > 60 µM (not active)

COc1ccc(OCc2cccc(C(=O)NN)c2)cc1
IC50 [13]: > 80 µM (inactive) | AC50 (HEK293): 3.57 µM (active)

COC(=O)CSc1nnc(-c2sc3ccccc3c2Cl)o1
IC50 [13]: > 80 µM (inactive)

COc1ccc(S(=O)(=O)N2CCN(CCO)CC2)cc1-c1nnc2c3ccccc3c(C)nn12
EC50 [16]: > 195 µM (not active) | IC50 (cells [17]): 4.08 µM (active)

COc1ccc(C2(O)CCN(CC(=O)Nc3nc(-c4ccccc4)cs3)CC2)cc1
CC50 [1]: > 40 µM (active) | IC50 (cells [4]): 16.7 µM (active)

O=C(O)/C=C/C(=O)Nc1ccc(Oc2ccc(NC(=O)/C=C/C(=O)O)cc2)cc1
IC50 (Leucine aminopeptidase): 14.8 µM (active) | IC50 (Large T antigen): > 100 µM (active)

Cc1ccc(C)c(NC(=O)C2CC(Cl)=CCC2C(=O)O)c1 (stereo unspecified)
IC50 (Leucine aminopeptidase): 18.6 µM (active)

COc1ccc(NC(=O)c2cc(-c3ccco3)nc3ccccc23)cn1
IC50 [10]: 22.5 µM (active) | IC50 [11]: 16.9 µM (active)

O=C(O)CSc1ccccn1
IC50 [6]: > 64 µM (inactive)

O=C(O)C1CC=CCC1C(=O)Nc1ccc(S(=O)(=O)N2CCCc3ccccc32)cc1 (stereo unspecified)
IC50 (Vero): 16.4 µM (active) | IC50 (cells [17]): 2.91 µM (active) | CC50 [18]: 15.7 µM (active)

COc1ccc(CCOC(=O)c2ccc(NC(=O)CC#N)cc2)cc1
IC50 (cells [17]): 9.43 µM (active) | CC50 [18]: > 50 µM (active)

CN(Cc1ccc(Cl)c(Cl)c1)C(=O)C1=CC=CN2CCS(=O)(=O)N=C12
IC50 [10]: 12.2 µM (active) | IC50 [11]: 8.45 µM (active)

C[C@]12CC[C@H](O)CC1=CCC1C2CC[C@@]2(C)C1CC[C@@H]2NC(=O)[C@@H](N)Cc1c[nH]cn1 (stereo partly specified)
AC50 [19]: 0.952 µM (active)

CC(=O)c1ccc(Nc2nc(C(N)Cc3ccc(N)cc3)cs2)cc1 (stereo unspecified)
AC50 [19]: 30.4 µM (active)

CCOc1ccc2ccccc2c1/C=N\NC(=O)OC
AC50 [20]: 48.5 µM (active)
